In patent US20150284344A1, “Substituted [1,2,4]triazole Compounds” (BASF SE, priority 2012, published 2015):

What was measured:
Assay type in all cases: cell-based
[1] = system: Botrytis cinerea; experiment: Microtiterplate test against grey mold Botrytis cinerea (Botrci), M1 / C1; conditions: comparison test C1, control = 100%
[2] = system: Pyricularia oryzae; conditions: comparison test C2, control = 100%
[3] = system: Septoria tritici; experiment: Microtiterplate test against leaf blotch on wheat caused by Septoria tritici (Septtr), M3 / C4; conditions: comparison test C4, control = 100%
[4] = system: Leptosphaeria nodorum; experiment: Microtiterplate test against wheat leaf spots caused by Leptosphaeria nodorum (Leptno), C3; conditions: comparison test C3, control = 100%

Compound | Growth (%) at 31 ppm Botrci [1] [%] | Growth (%) at 31 ppm Pyrior [2] [%] | Growth (%) at 2 ppm Septtr [3] [%] | Growth (%) at 2 ppm Leptno [4] [%]
Cc1cc(Oc2ccc(Cl)cc2)ccc1C(C)(O)Cn1cncn1 (stereo not drawn) [Compound I-4, 2-[4-(4-chlorophenoxy)-2-methyl-phenyl]-1-(1,2,4-triazol-1-yl)propan-2-ol] | 0 | 0 | 0 | 0
Cc1cc(Oc2ccc(Cl)cc2)ccc1C(O)(Cn1cncn1)C(F)(F)F (stereo not drawn) [Compound I-5, 2-[4-(4-chlorophenoxy)-2-methyl-phenyl]-1,1,1-trifluoro-3-(1,2,4-triazol-1-yl)propan-2-ol] | 0 | 0 | 2 | 1
Cc1cc(Oc2ccc(Cl)cc2)ccc1C(O)(CF)Cn1cncn1 (stereo not drawn) [EP 113 640 A2, compound 53, Table I, reference compound] | 63 | 47 | 40 | 65
